The values below come from patent US6706509B2, “Oncoprotein protein kinase” (The Regents of the University of California, priority 1993, dated 2004).

The test system of assay [1] is N-terminal c-Jun kinase (JNK). As to the kind of experiment: Solid-phase kinase assay of N-terminal c-Jun kinase activity in Jurkat cell extracts. The format is cell-based, human. To be noted: Jurkat cells, TPA 50 ng/ml, after 30 minutes. As to the method: (§1) Cell extracts were diluted so that the final composition of the WCE buffer was 20 mM HEPES pH 7.7, 75 mM NaCl, 2.5 mM MgCl2, 0.1 mM EDTA, 0.05% Triton X-100, 0.5 mM DTT, 20 mM β-glycerolphosphate, 0.1 mM Na3VO4, 2 μg/ml leupeptin, 100 μg/ml PMSF. The extracts were mixed with 10 μl of GSH-agarose suspension (Sigma) to which 10 μg of either GST or GST-Jun fusion proteins were bound. The mixture was rotated at 4° C. for 3 hours in a microfuge tube and pelleted by centrifugation at 10,000×g for 20 sec. After 4×1 ml washes in HEPES binding buffer (20 mM HEPES pH 7.7, 50 mM NaCl, 2.5 mM MgCl2, 0.1 mM EDTA, 0.05% Triton X-100), the pelleted beads were resuspended in 30 μl of kinase buffer (20 mM HEPES pH 7.6, 20 mM MgCl2, 20 mM β-glycerolphosphate, […] p-nitrophenyl phosphate, 0.1 mM Na3VO4, 2 mM DTT) containing 20 μM ATP and 5 μCi γ-^32P-ATP. After 20 minutes at 30° C. the reaction was terminated by washing with HEPES binding buffer. Phosphorylated proteins were eluted with 30 μl of 1.5×Laemlli sample buffer and resolved on a 10% SDS polyacrylamide gel, followed by autoradiography. Quantitation of phosphate incorporated was determined by gel slicing and scintillation counting. Phosphorylated GST fusion proteins were eluted from gel slices and subjected to phosphopeptide mapping as described (Boyle, et al., supra, 1991). […]

Assay [2] deals with N-terminal c-Jun kinase (JNK). Kind of assay: Solid-phase kinase assay of N-terminal c-Jun kinase activity in HeLa cell extracts. The format is cell-based, human. Particulars: HeLa S3 cells, TPA 100 ng/ml. Here is the method:
as §1

With `CCCCCCCCCCCCCC(=O)O[C@@H]1[C@@H](C)[C@@]2(O)[C@@H](C=C(CO)C[C@]3(O)C(=O)C(C)=C[C@@H]23)[C@H]2C(C)(C)[C@]12OC(C)=O` [TPA], the “N-terminal kinase activity, activation” value in assay [1] is given as 25 fold. Also, the “N-terminal c-Jun kinase activity, effect of treatment” value in assay [2] was “minor compared to that of UV”.
